Source: ChEMBL document CHEMBL5506056, “Discovery of Novel Azaindoles as Potent and Selective PI3Kδ Inhibitors for Treatment of Multiple Sclerosis” (J Med Chem, 2024)
pIC50: −log10 of the molar value.

Assays:
[1] = target: Phosphatidylinositol 4,5-bisphosphate 3-kinase catalytic subunit gamma isoform (Homo sapiens, UniProt P48736); test: Inhibition of PI3Kgamma (unknown origin) using PIP2 as substrate incubated for 1 hr by ADP-Glo assay
[2] = target: Phosphatidylinositol 4,5-bisphosphate 3-kinase catalytic subunit beta isoform (Homo sapiens, UniProt P42338); test: Inhibition of PI3Kbeta (unknown origin) using PIP2 as substrate incubated for 1 hr by ADP-Glo assay
[3] = target: Phosphatidylinositol 4,5-bisphosphate 3-kinase catalytic subunit alpha isoform (Homo sapiens, UniProt P42336); test: Inhibition of PI3Kalpha (unknown origin) using PIP2 as substrate incubated for 1 hr by ADP-Glo assay
[4] = Inhibition of mouse CD3-positive T cell proliferation pre-stimulated with anti-CD3/anti-CD28 followed by compound treatment by flow cytometry
[5] = Inhibition of mouse CD3-positive T cell activation pre-stimulated with anti-CD3/anti-CD28 followed by compound treatment by flow cytometry

Sequence of Phosphatidylinositol 4,5-bisphosphate 3-kinase catalytic subunit beta isoform (P42338 whole entry, canonical isoform): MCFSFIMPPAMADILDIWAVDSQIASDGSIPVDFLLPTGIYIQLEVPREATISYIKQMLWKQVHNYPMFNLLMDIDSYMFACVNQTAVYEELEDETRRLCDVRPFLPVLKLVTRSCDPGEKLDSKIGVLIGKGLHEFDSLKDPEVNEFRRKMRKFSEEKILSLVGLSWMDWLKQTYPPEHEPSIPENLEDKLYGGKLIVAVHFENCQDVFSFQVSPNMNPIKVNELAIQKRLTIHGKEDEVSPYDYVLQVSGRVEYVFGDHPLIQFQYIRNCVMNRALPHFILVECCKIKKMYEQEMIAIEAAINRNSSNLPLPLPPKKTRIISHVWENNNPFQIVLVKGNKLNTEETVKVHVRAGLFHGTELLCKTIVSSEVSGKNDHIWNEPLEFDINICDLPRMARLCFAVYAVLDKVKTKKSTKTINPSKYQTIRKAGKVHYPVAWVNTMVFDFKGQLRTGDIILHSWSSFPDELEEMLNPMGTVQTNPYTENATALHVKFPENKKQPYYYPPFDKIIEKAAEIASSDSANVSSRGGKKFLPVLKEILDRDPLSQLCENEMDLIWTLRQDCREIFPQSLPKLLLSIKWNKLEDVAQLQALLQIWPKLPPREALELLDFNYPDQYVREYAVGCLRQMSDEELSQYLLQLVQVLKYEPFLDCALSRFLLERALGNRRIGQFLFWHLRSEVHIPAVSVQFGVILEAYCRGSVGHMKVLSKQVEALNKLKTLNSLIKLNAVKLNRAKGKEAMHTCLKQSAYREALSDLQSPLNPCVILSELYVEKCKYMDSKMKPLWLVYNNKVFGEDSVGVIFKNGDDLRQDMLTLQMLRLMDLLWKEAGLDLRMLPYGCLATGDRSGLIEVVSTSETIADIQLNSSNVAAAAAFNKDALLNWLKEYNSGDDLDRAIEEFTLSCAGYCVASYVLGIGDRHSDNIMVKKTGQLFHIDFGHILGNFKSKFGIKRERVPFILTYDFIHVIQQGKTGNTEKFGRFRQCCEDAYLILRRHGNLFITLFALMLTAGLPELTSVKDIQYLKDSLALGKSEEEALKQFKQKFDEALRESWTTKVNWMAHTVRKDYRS
Sequence of Phosphatidylinositol 4,5-bisphosphate 3-kinase catalytic subunit gamma isoform (P48736 whole entry, canonical isoform): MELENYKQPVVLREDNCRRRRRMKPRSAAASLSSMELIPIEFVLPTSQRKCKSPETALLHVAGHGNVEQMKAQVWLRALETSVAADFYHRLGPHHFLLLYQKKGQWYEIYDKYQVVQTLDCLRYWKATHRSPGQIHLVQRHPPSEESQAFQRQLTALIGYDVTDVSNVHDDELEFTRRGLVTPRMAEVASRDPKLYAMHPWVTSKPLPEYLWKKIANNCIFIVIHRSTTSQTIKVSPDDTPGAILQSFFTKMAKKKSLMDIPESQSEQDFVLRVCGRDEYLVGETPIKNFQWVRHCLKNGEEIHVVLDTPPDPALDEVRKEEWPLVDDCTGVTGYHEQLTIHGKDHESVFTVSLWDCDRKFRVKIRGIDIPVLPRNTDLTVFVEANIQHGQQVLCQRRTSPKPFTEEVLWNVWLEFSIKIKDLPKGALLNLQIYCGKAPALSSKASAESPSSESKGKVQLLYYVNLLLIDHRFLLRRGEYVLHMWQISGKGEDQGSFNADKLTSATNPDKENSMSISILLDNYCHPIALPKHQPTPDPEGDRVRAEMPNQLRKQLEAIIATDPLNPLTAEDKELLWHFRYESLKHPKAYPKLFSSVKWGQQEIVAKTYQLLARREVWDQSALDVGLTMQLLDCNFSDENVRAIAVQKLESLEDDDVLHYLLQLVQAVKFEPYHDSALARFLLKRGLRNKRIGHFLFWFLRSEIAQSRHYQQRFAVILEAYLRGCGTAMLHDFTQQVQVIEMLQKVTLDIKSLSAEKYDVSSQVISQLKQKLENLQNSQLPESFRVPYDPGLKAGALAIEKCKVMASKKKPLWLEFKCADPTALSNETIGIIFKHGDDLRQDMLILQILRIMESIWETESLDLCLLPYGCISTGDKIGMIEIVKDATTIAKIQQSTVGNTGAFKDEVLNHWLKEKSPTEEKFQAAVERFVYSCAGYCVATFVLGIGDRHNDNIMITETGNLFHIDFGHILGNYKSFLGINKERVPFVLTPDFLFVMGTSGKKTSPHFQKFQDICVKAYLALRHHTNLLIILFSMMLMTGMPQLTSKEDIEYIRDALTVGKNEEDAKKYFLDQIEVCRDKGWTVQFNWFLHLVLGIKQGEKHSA
Sequence of Phosphatidylinositol 4,5-bisphosphate 3-kinase catalytic subunit alpha isoform (P42336 whole entry, canonical isoform): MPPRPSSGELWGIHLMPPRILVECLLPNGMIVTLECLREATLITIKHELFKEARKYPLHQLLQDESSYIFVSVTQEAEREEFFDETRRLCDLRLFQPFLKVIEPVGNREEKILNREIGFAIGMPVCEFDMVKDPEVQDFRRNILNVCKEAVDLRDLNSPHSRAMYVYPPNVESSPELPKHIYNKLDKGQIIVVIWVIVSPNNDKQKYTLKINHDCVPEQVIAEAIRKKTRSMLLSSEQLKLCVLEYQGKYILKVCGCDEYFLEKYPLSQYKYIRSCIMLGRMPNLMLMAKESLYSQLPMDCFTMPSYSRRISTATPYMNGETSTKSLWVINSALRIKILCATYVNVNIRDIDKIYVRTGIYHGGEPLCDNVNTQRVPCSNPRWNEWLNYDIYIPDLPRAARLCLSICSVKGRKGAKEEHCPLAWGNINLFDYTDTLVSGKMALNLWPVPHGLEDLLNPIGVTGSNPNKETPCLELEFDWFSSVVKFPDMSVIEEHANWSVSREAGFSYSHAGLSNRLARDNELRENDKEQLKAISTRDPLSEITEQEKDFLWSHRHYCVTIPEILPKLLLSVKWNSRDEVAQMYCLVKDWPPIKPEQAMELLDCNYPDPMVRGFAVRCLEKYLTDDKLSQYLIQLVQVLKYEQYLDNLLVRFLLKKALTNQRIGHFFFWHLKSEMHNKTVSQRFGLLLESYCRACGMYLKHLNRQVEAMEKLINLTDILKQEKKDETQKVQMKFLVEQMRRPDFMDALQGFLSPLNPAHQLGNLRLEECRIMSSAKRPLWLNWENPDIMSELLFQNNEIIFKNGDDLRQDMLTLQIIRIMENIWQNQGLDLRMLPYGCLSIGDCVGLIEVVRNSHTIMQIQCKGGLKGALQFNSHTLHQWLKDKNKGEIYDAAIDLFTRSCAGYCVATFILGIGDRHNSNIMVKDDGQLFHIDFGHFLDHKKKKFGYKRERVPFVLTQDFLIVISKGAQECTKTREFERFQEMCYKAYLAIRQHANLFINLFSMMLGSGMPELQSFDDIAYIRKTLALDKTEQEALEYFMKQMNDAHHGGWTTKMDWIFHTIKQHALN

| pIC50 [1] | pIC50 [2] | pIC50 [3] | pIC50 [5] | Compound | pIC50 [4] |
| --- | --- | --- | --- | --- | --- |
| < 5.00 | 5.78 | 5.15 |  | C[C@H](Nc1nc(N)nc(N)c1C#N)c1cn(-c2cccnc2)c2cc(Cl)cnc12 |  |
| < 5.00 | < 5.00 | < 5.00 |  | CC(Nc1nc(N)nc(N)c1C#N)c1cn(-c2cccnc2)c2cc(Cl)cnc12 (stereo unspecified) |  |
| < 5.00 | 5.63 | < 5.00 |  | C[C@@H](Nc1nc(N)nc(N)c1C#N)c1cn(-c2cccnc2)c2cc(Cl)cnc12 (racemic) |  |
|  |  |  | < 5.00 | CC[C@H](Nc1ncnc2[nH]cnc12)c1nc2cccc(F)c2c(=O)n1-c1ccccc1 [IDELALISIB] | 5.05 |
